The values below come from US5629198A (priority 1991, dated 1997).

One series deals with MOLT-4/HTLV-IIIB. Briefly: Killing effect on cells persistently infected with HIV (Test Example 1), trypan blue. The format is cell-based, human. The note with it: for killing effect on HIV-infected cells: summary. Here is the method:
(§1) The cell killing effects of test substances were determined using a cell strain persistently infected with HIV in MOLT-4 cells and MOLT-4 cells.
(§2) MOLT4/HTLV-IIIB, MOLT4/ARV and MOLT4 cell strains were separately inoculated in proportions of 4×10^4 cells/well (200 μl) on a 96-well plate, and the above test substances in various concentrations were separately added in an amount of 20 μl thereto. After each cell sample was cultured for 3 days at 37° C. in the presence of 5% CO2, the culture was diluted to a triple or quadruple amount, thereby counting the number of living cells by a trypan blue dye exclusion test. As a control, 20 μl of PBS were added in place of each test substance. Each numerical value is expressed in terms of the percentage of living cells to the control.

For the next series, the system named is MOLT-4/ARV. The description is as above. The format is cell-based, human. The note with it: 3 days. Here is the method: as §1, §2
For the next series, the system named is MOLT-4. Briefly: Killing effect on uninfected cells (Test Example 1), trypan blue. The format is cell-based, human. The note with it: 3 days. The procedure:
as §1, §2

The subject of another series is HTLV-IIIB in MT-4 cells. Nature of the series: Anti-HIV effect: TCID50 of infectious virus from infected MT-4 cells (Test Example 5). In kind it is cell-based, HIV (HTLV-IIIB). The note with it: for TCID50 (quantity of infectious virus): 4 days, positive control 3.31 × 10^7; for proliferation inhibiting effect on HIV: summary. The procedure: The inhibitory effects of test substances on the cytopathy and HIV antigen production of MT-4 cells due to HIV infection were determined.
MT-4 cells belonging to a cell strain persistently infected with HTLV-1 are high in sensitivity to HIV and promptly die out when infected. MT-4/HIV cells which are MT-4 cells infected with HIV are used for screening anti-HIV agents making good use of this nature.
After MT-4 cells (1.2×10^7 cells) were infected for 2 hours at 37° C. with 3.2 ml of HTLV-IIIB (10^7 TCID50 /ml) obtained from a culture supernatant of a cell strain persistently infected with HIV, i.e., […], the cells were washed. After the cells were then inoculated on a 48-well microplate in a proportion of 1×10^5 cells/well, the test substances were separately added in an amount of 100 μl. As a negative control, there was used a culture obtained by adding 3.2 ml of a culture supernatant after culturing MOLT-4 cells for 3 days to MT-4 cells (4.7×10^6 cells), conducting culture for 2 hours at 37° C., washing the cells in the same manner as described above, inoculating them in a proportion of 1×10^5 cells/well and adding PBS in place of the test substances.
Upon elapsed time of 4 days after the culture, each supernatant was assayed on a P24gag protein based on an EIA kit produced by Abbott Labs, and the number of living cells was counted by the Trypan Blue dye exclusion method, and moreover, TCID50 indicative of an actual quantity of infectious virus was calculated.

For series [1], the system named is cells persistently infected with HIV. The note with it: cited from earlier work.
The conditions of series [2]: in vivo; cited from earlier work.
Series [3] relates to Molt-4/C18 cells infected with Molt-4/HTLV-IIIB culture supernatant. Nature of the series: Inhibiting effect on cytopathy, MTT assay (Test Example 8 (2)). The format is cell-based. Particulars: Homo sapiens, MOLT-4, 96 h, read-out: Number of living cells. The procedure: (2) The inhibiting effects of test substances on the formation of multinucleated giant cells and on cytopathy in a Molt-4/C18 cell-infected system were investigated.
Molt-4/C18 cells in a logarithmic growth phase were inoculated in a proportion of 2×10^4 cells/well (20 μl) on a 96-well flat-bottom plate, and 30 μl of a culture supernatant of Molt-4/HTLV-IIIB cells were added. Then, solutions of the test substances in various concentrations were separately added in an amount of 50 μl, followed by their culture at 37° C. under conditions of 5% CO2. To wells for a positive control, 50 μl of a culture medium were added in place of the solution of each test substance, while to wells for a negative control, 30 μl of the culture medium were added instead of the culture supernatant. Defining the day the culture was started as Day 0, the culture was continuously conducted for 4 days to observe a state of formation of multinucleated giant cells and to count the number of living cells by the MTT assay.

Another series relates to MT-4/LAV-infected system. The note with it: cited from earlier work.
Setting [4] is: Homo sapiens, MOLT-4, 72 h, 1 μM, read-out: living cells (percentage to the control).

With `C=CC1=C(C)c2cc3[n-]c(cc4[n-]c(cc5nc(cc1n2)C(C)=C5C=C)c(C)c4CCC(=O)O)c(CCC(=O)O)c3C.[Cl-].[Fe+3]` [Hemin], the “living cells (percentage to the control)” value with MOLT-4/HTLV-IIIB (10 μM, 3 days) turned out to be 100%; in the series with MOLT-4/HTLV-IIIB (40 μM, 3 days), 90%; with MOLT-4/ARV (10 μM), 94%; in the series on MOLT-4/ARV (40 μM), 93%; in the series on MOLT-4 (10 μM) it was 98%; in the series on MOLT-4 (40 μM), 99%. The “killing effect on HIV-infected cells” value with MOLT-4/HTLV-IIIB is “no killing effect on HIV-infected cells”. For the same molecule, in the series on HTLV-IIIB in MT-4 cells (10 μM), the “TCID50 (quantity of infectious virus)” value is recorded as 1.52 × 10^7 TCID50 /ml. Moreover, in the series with HTLV-IIIB in MT-4 cells, the “proliferation inhibiting effect on HIV” value is reported as “have a proliferation inhibiting effect on HIV”.

Turning to `Cc1cn([C@H]2C[C@H](N=[N+]=[N-])[C@@H](CO)O2)c(=O)[nH]c1=O` [AZT, 3'-azido-3'-deoxythymidine], in series [1], the “effect on cells already infected with HIV” value was “no effect on cells already infected with HIV”. Moreover, in the series on MOLT-4/HTLV-IIIB (Homo sapiens, MOLT-4, 72 h, 1 μM, 3 days, read-out: living cells (percentage to the control)), the viability at 1 µM is 71%. The viability at 1 µM in the series with MOLT-4/ARV (setting [4]) is 82%. The viability at 1 µM in the series with MOLT-4 (setting [4]) turned out to be 55%. Moreover, in series [2], the side effects result is “a myelodepresant effect is remarkably observed as a side effect in addition to headache and gastrointestinal disorders”. The “TCID50 (quantity of infectious virus)” value with HTLV-IIIB in MT-4 cells (1 μM) is 5.94 × 10^4 TCID50 /ml. The viability at 25 µM in series [3] (25 (μM), 4 days, positive control 27) was found to be 84%. Further, in series [3], the viability at 0.004 µM came to 42%, the viability at 0.02 µM was 69%, the viability at 0.1 µM worked out at 79% and the viability at 0.5 µM is 84%.

For `C=CC1=C(C)c2cc3[nH]c(cc4nc(cc5[nH]c(cc1n2)c(C)c5CCC(=O)O)C(CCC(=O)O)=C4C)c(C)c3C=C` [protoporphyrin], the “killing effect on HIV-infected cells” value in the series with MOLT-4/HTLV-IIIB was “no killing effect on HIV-infected cells”. Also, the anti-HIV activity result in the series with MT-4/LAV-infected system was “exhibits an anti-HIV activity”. Moreover, in the series on HTLV-IIIB in MT-4 cells, the “proliferation inhibiting effect on HIV” value was “have a proliferation inhibiting effect on HIV”.
